From patent publication US20250176602A1, “Composition for Proliferation of Bacteroides uniformis in the Intestinal Tract” (Asahi Group Holdings, Ltd., priority 2019, published 2025)

Legend:
[1] = tested on: Bacteroides, Bifidobacterium, and Lactobacillus; conditions: obese mice given high-fat diets, fed α-cyclodextrin; cited from earlier work
[2] = Exercise performance test, 10 km SPIN CYCLE travel time (Example 6); assay type: in vivo, human; conditions: after 8-week intake, about 1000 mg/day; p<0.05
Experimental: As the test subjects, 86 healthy males at the ages of 20 to 49 who have exercise habits of conducting exercise with an intensity of 5 METs or more for 30 minutes or more once or twice a week and who can continue the exercise habits during the test period as well were selected.
Among the 86 test subjects, 43 test subjects were selected as an α-cyclodextrin (αCD) intake group, and the remaining 43 test subjects were selected as a placebo group. The test subjects themselves were not informed who belonged to which group.
Test Supplements (tablets) having compositions described in Table 4 below were used. One tablet of the test supplements was of about 600 mg.
Each test subject of the αCD intake group and the placebo group was asked to take in 4 tablets of the above test supplements once a day at any timing. That is, each test subject of the α-cyclodextrin intake group was asked to take in about 1000 mg of α-cyclodextrin per day.
The intake period for the test supplements was set to 8 weeks, and the heart rate during exercise was measured, before the start of the intake, after 4-week intake, and after 8-week intake to evaluate change in heart rate. In addition, a questionnaire on fatigue feeling was conducted before the start of the intake of the test supplements and after 8-week intake, and change in travel time was evaluated. […]

Bacteroides uniformis = test: Proliferation of Bacteroides uniformis in the intestinal tract, quantification PCR of feces (Example 1); assay type: in vivo, human; conditions: about 200 mg α-cyclodextrin per day, oral tablets; 8w vs 0w; p<0.05
Experimental: As test subjects, 21 healthy males at the ages of 20 to 49 who have exercise habits of conducting exercise with an intensity of 5 METs or more for 30 minutes or more once or twice a week and who can continue the exercise habits during the test period as well were selected. Among the 21 test subjects, 10 test subjects were selected as an α-cyclodextrin (αCD) intake group, and the remaining 11 test subjects were selected as a placebo group. The test subjects themselves were not informed who belonged to which group. Test Supplements (tablets) having compositions described in Table 1 below were used. One tablet of the test supplements was of about 250 mg. […] The intake period for the test supplements was set to 9 weeks, and change in gut flora was evaluated, a questionnaire on fatigue feeling was conducted, and change in travel time was evaluated, before the start of the intake, after 4-week intake, and after 8-week intake. […] DNA was extracted from the collected feces by a conventional method, and the absolute number of Bacteroides uniformis in the intestinal tract was evaluated by conducting quantification PCR (probe method) with a conventional method using a forward primer, a reverse primer, and a probe targeting a sequence specific to the 16Sr DNA sequence region of Bacteroides uniformis with reference to the description of Anaerobe (2011), 17, 64-68, Jia Tong et al.

## OC[C@H]1O[C@@H]2O[C@H]3[C@H](O)[C@@H](O)[C@@H](O[C@H]4[C@H](O)[C@@H](O)[C@@H](O[C@H]5[C@H](O)[C@@H](O)[C@@H](O[C@H]6[C@H](O)[C@@H](O)[C@@H](O[C@H]7[C@H](O)[C@@H](O)[C@@H](O[C@H]1[C@H](O)[C@H]2O)O[C@@H]7CO)O[C@@H]6CO)O[C@@H]5CO)O[C@@H]4CO)O[C@@H]3CO [α-cyclodextrin]
[1]
  accumulation of fat: reductions in accumulation of fat
  total bacterial cell numbers of Bacteroides, Bifidobacterium, and Lactobacillus in the intestinal tracts: suppress decreases
[2]
  travel time for 10 km, change vs before intake, compared with placebo group: significantly less
Bacteroides uniformis
  bacterial cell number of Bacteroides uniformis in the intestinal tract, after 8-week intake as compared with before intake: about 2.5 times
